In brackets after ≈: the same amount, converted by molar mass. Activity calls are given as the source filed them. The rule behind the calls is not given here.
How the values were obtained:
[1] = Aqueous solubility in PBS; type: physicochemical; conditions: buffer
[2] = Phototoxicity against mouse B16-F10 cells assessed as reduction in cell viability incubated for 16 hrs followed by irradiated with 54 J/cm^2 of light dose and further incubated for 24 hrs by CCK-8 assay; type: toxicity, cell-based; conditions: B16-F10, light or radiation study
A-375 [3] = test: Dark toxicity against human A-375 cells assessed as reduction in cell viability incubated for 16 hrs by CCK-8 assay; type: functional, cell-based; conditions: A-375, 16 h
[4] = Phototoxicity against human A-375 cells assessed as reduction in cell viability incubated for 16 hrs followed by irradiated with 54 J/cm^2 of light dose and further incubated for 24 hrs by CCK-8 assay; type: toxicity, cell-based; conditions: A-375, light or radiation study
[5] = Drug localisation in mitochondria of mouse B16-F10 cells at 5 uM incubated for 16 hrs by Mito Tracker Green FM based confocal laser scanning microscopy analysis; type: ADME; conditions: b16-f10, 16 h
[6] = Drug localisation in mitochondria of human A-375 cells at 5 uM incubated for 16 hrs by Mito Tracker Green FM based confocal laser scanning microscopy analysis; type: ADME; conditions: a-375, 16 h
[7] = Drug localisation in lysosome of mouse B16-F10 cells at 5 uM incubated for 16 hrs by Lyso Tracker Green based confocal laser scanning microscopy analysis; type: ADME, subcellular; conditions: b16-f10, 16 h
[8] = Drug localisation in endoplasmic reticulum of human A-375 cells at 5 uM incubated for 16 hrs by ER Tracker Green based confocal laser scanning microscopy analysis; type: ADME, subcellular; conditions: a-375, 16 h
B16-F10 [9] = test: Induction of ROS generation in mouse B16-F10 cells assessed as cells with high intracellular ROS levels at 10 nM incubated for 16 hrs followed by irradiated with 54 J/cm^2 of light dose by H2DCFDA fluorescent probe based flow cytometry method (reference value: 1.96 %); type: functional
B16-F10 [10] = test: Induction of ROS generation in mouse B16-F10 cells assessed as cells with high intracellular ROS levels at 20 nM incubated for 16 hrs followed by irradiated with 54 J/cm^2 of light dose by H2DCFDA fluorescent probe based flow cytometry method (reference value: 1.96 %); type: functional
A-375 [11] = test: Induction of ROS generation in human A-375 cells assessed as cells with high intracellular ROS levels at 20 nM incubated for 16 hrs followed by irradiated with 54 J/cm2 light dose by H2DCFDA fluorescent probe based flow cytometry method (reference value: 2.09 %); type: functional
A-375 [12] = test: Induction of ROS generation in human A-375 cells assessed as cells with high intracellular ROS levels at 100 nM incubated for 16 hrs followed by irradiated with 54 J/cm2 light dose by H2DCFDA fluorescent probe based flow cytometry method (reference value: 2.09 %); type: functional
B16-F10 [13] = test: Induction of apoptosis in mouse B16-F10 cells assessed as viable cells at 50 nM incubated for 16 hrs followed by irradiated with 54 J/cm^2 of light dose by Annexin V-FITC/PI based flow cytometric analysis (reference value: 87.45 %); type: functional; conditions: B16-F10, light or radiation study, read-out: Activity
B16-F10 [14] = test: Induction of apoptosis in mouse B16-F10 cells assessed as early apoptotic cells at 10 nM incubated for 16 hrs followed by irradiated with 54 J/cm^2 light dose by Annexin V-FITC/PI based flow cytometric analysis (reference value: 6.48 %); type: functional
B16-F10 [15] = test: Photodynamic therapy in mouse B16-F10 cells implanted in C57BL/6 mouse model assessed as increase in infiltration of CD8+ T cells by APC/FITC/PE staining based flow cytometric analysis (reference value: 3.68 %); type: functional
B16-F10 [16] = test: Induction of apoptosis in mouse B16-F10 cells assessed as necrotic cells at 10 nM incubated for 16 hrs followed by irradiated with 54 J/cm^2 light dose by Annexin V-FITC/PI based flow cytometric analysis (reference value: 3.75 %); type: functional
B16-F10 [17] = test: Induction of apoptosis in mouse B16-F10 cells assessed as necrotic cells at 50 nM incubated for 16 hrs followed by irradiated with 54 J/cm^2 light dose by Annexin V-FITC/PI based flow cytometric analysis (reference value: 3.75 %); type: functional
B16-F10 [18] = test: Induction of apoptosis in mouse B16-F10 cells assessed as necrotic cells at 250 nM incubated for 16 hrs followed by irradiated with 54 J/cm^2 light dose by Annexin V-FITC/PI based flow cytometric analysis (reference value: 3.75 %); type: functional
B16-F10 [19] = test: Antitumor immunity against mouse B16-F10 cells assessed as release of HMGB1 at 10 nM incubated for 16 hrs followed by irradiated with 54 J/cm^2 light dose and further incubated for 6 hrs by Alexa Fluor 488/Hoechst 33342 staining based confocal laser scanning microscopy; type: functional, cell-based
B16-F10 [20] = test: Antitumor immunity against mouse B16-F10 cells assessed as surface translocation of CRT at 10 nM incubated for 16 hrs followed by irradiated with 54 J/cm^2 light dose and further incubated for 6 hrs by Alexa Fluor 488/Hoechst 33342 staining based confocal laser scanning microscopy; type: functional, cell-based
[21] = Biodistribution in liver of C57BL/6 mouse harboring mouse B16-F10 cells at 2 mg/kg, iv measured after 12 hrs by flourescence imaging assay; type: ADME, organism-based; conditions: in vivo
B16-F10 [22] = test: Antitumor activity against mouse B16-F10 cells implanted in C57BL/6 mouse assessed as inhibition of tumor growth at 2 mg/kg, iv irradiated with 60 J/cm^2 laser light by IVIS imaging analysis measured upto 48 hrs; type: functional, organism-based; conditions: time hrs <=48
[23] = Toxicity in C57BL/6 mouse harboring mouse B16-F10 cells assessed as change in body weight at 2 mg/kg, iv irradiated with 60 J/cm^2 laser light measured upto 14 days; type: organism-based; conditions: in vivo, 336 h, time <=14 day
B16-F10 [24] = test: Photodynamic therapy in mouse B16-F10 cells implanted in C57BL/6 mouse model assessed as increase infiltration of CD4+ T cells measured after 3 days by immunofluorescence staining based analysis; type: functional, cell-based; conditions: time 3.0 day
B16-F10 [25] = test: Photodynamic therapy in mouse B16-F10 cells implanted in C57BL/6 mouse model assessed as increase infiltration of CD8+ T cells measured after 3 days by immunofluorescence staining based analysis; type: functional, cell-based; conditions: time 3.0 day

With `COc1ccc(C2=[N+]3C(=Nc4c(-c5ccccc5)c5c(n4[B-]3(F)F)-c3ccc(OCC(=O)N[C@@H](CC(=O)O)C(=O)O)cc3CC5)C(c3ccccc3)=C2I)cc1` as the compound, how does the solubility [1] read?
The solubility was 165 µM (≈ 144 µg/mL).

What about the IC50 [2] of the same compound?
The IC50 was 65 nM.

And the IC50 (A-375 [3])?
The IC50 was greater than 250000 nM.

What about the IC50 [4] of the same compound?
Its IC50 is 81 nM.

And the Drug uptake [5]?
The Drug uptake was “Active”.

What about the Drug uptake [6] of the same compound?
Its Drug uptake is “Active”.

What about the Drug uptake [7] of the same compound?
The Drug uptake was “Active”.

What about the Drug uptake [8] of the same compound?
Its Drug uptake is “Active”.

And the Activity (B16-F10 [9])?
The Activity was 2.67%.

And the Activity (B16-F10 [10])?
Its Activity is 6.77%.

And the Activity (A-375 [11])?
Its Activity is 4.57%.

And the Activity (A-375 [12])?
Its Activity is 53.15%.

What about the viability at 0.05 µM (B16-F10 [13]) of the same compound?
The viability at 0.05 µM was 41.9%.

What about the Activity (B16-F10 [14]) of the same compound?
Its Activity is 2.93%.

And the Activity (B16-F10 [15])?
Its Activity is 7.98%.

What about the Activity (B16-F10 [16]) of the same compound?
Its Activity is 0.88%.

What about the Activity (B16-F10 [17]) of the same compound?
Its Activity is 3.51%.

And the Activity (B16-F10 [18])?
Its Activity is 0.29%.

What about the Activity (B16-F10 [19]) of the same compound?
Its Activity is “inactive”.

What about the Activity (B16-F10 [20]) of the same compound?
The Activity was “inactive”.

And the Drug uptake [21]?
Its Drug uptake is “Active”.

And the Activity (B16-F10 [22])?
Its Activity is “Active”.

And the Activity [23]?
The Activity was “Non-Toxic”.

And the Activity (B16-F10 [24])?
Its Activity is “Active”.

What about the Activity (B16-F10 [25]) of the same compound?
The Activity was “Active”.

Reference: ChEMBL document CHEMBL5038667, “Discovery of an Amino Acid-Modified Near-Infrared Aza-BODIPY Photosensitizer as an Immune Initiator for Potent Photodynamic Therapy in Melanoma” (J Med Chem, 2022)
